Source: PubChem BioAssay AID1918994 (Molecular Pharmacology Branch, DTP, NCI, 2023)
Where “and” joins values, the source holds several entries; their conditions need not be identical. Equal entries are not always repeated.

System: 292921-168-R-J2-PDC complex spheroid growth
Assay: Anticancer human tumor 292921-168-R-J2-PDC patient-derived pancreatic carcinoma cell line growth inhibition [AhR]
Details: for viability, T/C: stronger effect = lower value
Method in brief: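 Agents were dosed in half-log steps down from roughly clinical Cmax, or from 10 microM where Cmax was unknown, alone and with AhR antagonists. Read-out: percent test/control growth of tumor spheroids containing HUVEC and MSC stromal cells.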

[1] = curve of first compound, second compound 0.1 µM
[2] = curve of first compound, second compound 0.316 µM
[3] = curve of first compound, second compound 1 µM
[4] = curve of first compound, second compound 3.16 µM
[5] = curve of first compound, second compound 10 µM
[6] = second compound 0.1 µM, first compound 0.00316 µM
[7] = second compound 0.1 µM, first compound 0.01 µM
[8] = second compound 0.1 µM, first compound 0.0316 µM
[9] = second compound 0.1 µM, first compound 0.1 µM
[10] = second compound 0.1 µM, first compound 0.316 µM
[11] = second compound 0.1 µM, first compound 1 µM
[12] = second compound 0.316 µM, first compound 0.00316 µM
[13] = second compound 0.316 µM, first compound 0.01 µM
[14] = second compound 0.316 µM, first compound 0.0316 µM
[15] = second compound 0.316 µM, first compound 0.1 µM
[16] = second compound 0.316 µM, first compound 0.316 µM
[17] = second compound 0.316 µM, first compound 1 µM
[18] = second compound 1 µM, first compound 0.00316 µM
[19] = second compound 1 µM, first compound 0.01 µM
[20] = second compound 1 µM, first compound 0.0316 µM
[21] = second compound 1 µM, first compound 0.1 µM
[22] = second compound 1 µM, first compound 0.316 µM
[23] = second compound 1 µM, first compound 1 µM
[24] = second compound 3.16 µM, first compound 0.00316 µM
[25] = second compound 3.16 µM, first compound 0.01 µM
[26] = second compound 3.16 µM, first compound 0.0316 µM
[27] = second compound 3.16 µM, first compound 0.1 µM
[28] = second compound 3.16 µM, first compound 0.316 µM
[29] = second compound 3.16 µM, first compound 1 µM
[30] = second compound 10 µM, first compound 0.00316 µM
[31] = second compound 10 µM, first compound 0.01 µM
[32] = second compound 10 µM, first compound 0.0316 µM
[33] = second compound 10 µM, first compound 0.1 µM
[34] = second compound 10 µM, first compound 0.316 µM
[35] = second compound 10 µM, first compound 1 µM
[36] = second compound 0.1 µM, first compound 3.16 µM
[37] = second compound 0.1 µM, first compound 10 µM
[38] = second compound 0.316 µM, first compound 3.16 µM
[39] = second compound 0.316 µM, first compound 10 µM
[40] = second compound 1 µM, first compound 3.16 µM
[41] = second compound 1 µM, first compound 10 µM
[42] = second compound 3.16 µM, first compound 3.16 µM
[43] = second compound 3.16 µM, first compound 10 µM
[44] = second compound 10 µM, first compound 3.16 µM
[45] = second compound 10 µM, first compound 10 µM
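Note: spheroids exposed to compounds for seven days after three days of growth.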

With `Nc1ncn(C2CC(O)C(CO)O2)c(=O)n1` (centres undefined) + CC(CO)NC(=O)c1cc(-c2ccc(Cl)cc2)nn(-c2cnn(C)c2)c1=O the IC50 [1] was greater than 1000 nM, the IC50 [2] was greater than 1000 nM and the IC50 [3] was greater than 1000 nM. The IC50 [4] was greater than 1000 nM, the IC50 [5] was greater than 1000 nM and the viability, T/C [6] was 102%. It also gave a viability, T/C [7] of 93.3%, a viability, T/C [8] of 87.1% and a viability, T/C [9] of 88.8%. It also gave a viability, T/C [10] of 80.9%, a viability, T/C [11] of 73.7% and a viability, T/C [12] of 101%. It also gave a viability, T/C [13] of 96.3%, a viability, T/C [14] of 105% and a viability, T/C [15] of 90.8%. The viability, T/C [16] was 85.8%, the viability, T/C [17] was 77.8% and the viability, T/C [18] was 97.5%. For the same compound, the viability, T/C [19] was 104%, the viability, T/C [20] was 103% and the viability, T/C [21] was 94.5%. The viability, T/C [22] was 86.2%, the viability, T/C [23] was 78.8% and the viability, T/C [24] was 94.7%. The viability, T/C [25] was 91%, the viability, T/C [26] was 92.4% and the viability, T/C [27] was 76.5%. The viability, T/C [28] was 81.4%, the viability, T/C [29] was 69.5% and the viability, T/C [30] was 70.3%. For the same compound, the viability, T/C [31] was 72.8%, the viability, T/C [32] was 71% and the viability, T/C [33] was 73%. For the same compound, the viability, T/C [34] was 63% and the viability, T/C [35] was 62.5%.
For `CC[C@@]1(O)C(=O)OCc2c1cc1n(c2=O)Cc2cc3c(CN(C)C)c(O)ccc3nc2-1`, the viability, T/C (compound 0.000316 µM) was 110% and 102% and 99.3%, the viability, T/C (compound 0.001 µM) was 103% and 107% and 96.5% and the viability, T/C (compound 0.00316 µM) was 94.2% and 93.7% and 90.6%. The viability, T/C (compound 0.01 µM) was 83.7% and 86.5% and 77.4%, the viability, T/C (compound 0.0316 µM) was 59.3% and 48.2% and 41.8% and the viability, T/C (compound 0.1 µM) was 28.4% and 23.3% and 20.4%. The IC50 (curve of compound) was 45.6 nM and 30.7 nM and 24.4 nM.
`CC[C@@]1(O)C(=O)OCc2c1cc1n(c2=O)Cc2cc3c(CN(C)C)c(O)ccc3nc2-1` + CC(CO)NC(=O)c1cc(-c2ccc(Cl)cc2)nn(-c2cnn(C)c2)c1=O gave an IC50 [1] of 29.2 nM, an IC50 [2] of 28.1 nM and an IC50 [3] of 30.7 nM. The IC50 [4] was 25.5 nM, the IC50 [5] was 18.4 nM and the viability, T/C (second compound 0.1 µM, first compound 0.000316 µM) was 101%. It also gave a viability, T/C (second compound 0.1 µM, first compound 0.001 µM) of 99.9%, a viability, T/C [6] of 100% and a viability, T/C [7] of 78.6%. For the same compound, the viability, T/C [8] was 48.6%, the viability, T/C [9] was 21.8% and the viability, T/C (second compound 0.316 µM, first compound 0.000316 µM) was 104%. It also gave a viability, T/C (second compound 0.316 µM, first compound 0.001 µM) of 103%, a viability, T/C [12] of 106% and a viability, T/C [13] of 75.2%. The viability, T/C [14] was 49.3%, the viability, T/C [15] was 24% and the viability, T/C (second compound 1 µM, first compound 0.000316 µM) was 101%. For the same compound, the viability, T/C (second compound 1 µM, first compound 0.001 µM) was 98.2%, the viability, T/C [18] was 99.5% and the viability, T/C [19] was 77.4%. For the same compound, the viability, T/C [20] was 50.4%, the viability, T/C [21] was 23.3% and the viability, T/C (second compound 3.16 µM, first compound 0.000316 µM) was 91.4%. The viability, T/C (second compound 3.16 µM, first compound 0.001 µM) was 81.6%, the viability, T/C [24] was 90.6% and the viability, T/C [25] was 72.5%. The viability, T/C [26] was 45.1%, the viability, T/C [27] was 23.6% and the viability, T/C (second compound 10 µM, first compound 0.000316 µM) was 68%. The viability, T/C (second compound 10 µM, first compound 0.001 µM) was 67.7%, the viability, T/C [30] was 63.1% and the viability, T/C [31] was 62%. For the same compound, the viability, T/C [32] was 40% and the viability, T/C [33] was 22%.
In the case of `NS(=O)(=O)OCC1CC(n2ccc3c(NC4CCc5ccccc54)ncnc32)CC1O` (centres undefined) + Cc1ccccc1N=Nc1ccc(NC(=O)c2ccnn2C)c(C)c1, the IC50 [1] is reported as 189 nM, the IC50 [2] is reported as 168 nM and the IC50 [3] is reported as 161 nM. For the same compound, the IC50 [4] was 138 nM, the IC50 [5] was 115 nM and the viability, T/C [8] was 122%. For the same compound, the viability, T/C [9] was 88.3%, the viability, T/C [10] was 19.3% and the viability, T/C [11] was 4.4%. For the same compound, the viability, T/C [36] was 3.09%, the viability, T/C [37] was 2.81% and the viability, T/C [14] was 128%. It also gave a viability, T/C [15] of 77.9%, a viability, T/C [16] of 15.7% and a viability, T/C [17] of 4.5%. It also gave a viability, T/C [38] of 4.78%, a viability, T/C [39] of 3.59% and a viability, T/C [20] of 111%. The viability, T/C [21] was 73.6%, the viability, T/C [22] was 16.2% and the viability, T/C [23] was 6.04%. For the same compound, the viability, T/C [40] was 3.96%, the viability, T/C [41] was 5.05% and the viability, T/C [26] was 100%. The viability, T/C [27] was 64%, the viability, T/C [28] was 13.8% and the viability, T/C [29] was 4.58%. For the same compound, the viability, T/C [42] was 8.31%, the viability, T/C [43] was 2.91% and the viability, T/C [32] was 88.9%. It also gave a viability, T/C [33] of 55.2%, a viability, T/C [34] of 13.7% and a viability, T/C [35] of 5.55%. For the same compound, the viability, T/C [44] was 3.67% and the viability, T/C [45] was 2.58%.
With `O=C(C=Cc1cccc(S(=O)(=O)Nc2ccccc2)c1)NO` the viability, T/C (compound 0.0316 µM) was 68.6% and 72.8% and 73.1%, the viability, T/C (compound 0.1 µM) was 60.2% and 62% and 60% and the viability, T/C (compound 0.316 µM) was 45.1% and 51.2% and 40.3%. For the same compound, the viability, T/C (compound 1 µM) was 40.8% and 41.1% and 34.5%, the viability, T/C (compound 3.16 µM) was 36.6% and 37.4% and 31.4% and the viability, T/C (compound 10 µM) was 3.45% and 3.29% and 1.56%. For the same compound, the IC50 (curve of compound) was 424 nM and 553 nM and 249 nM.
With `Nc1ccccc1NC(=O)c1ccc(CNC(=O)OCc2cccnc2)cc1` + Cc1ccccc1N=Nc1ccc(NC(=O)c2ccnn2C)c(C)c1 the IC50 [1] was 539 nM, the IC50 [2] was 612 nM and the IC50 [3] was 277 nM. The IC50 [4] was 229 nM, the IC50 [5] was less than 31.6 nM and the viability, T/C [8] was 66.5%. It also gave a viability, T/C [9] of 65.1%, a viability, T/C [10] of 57% and a viability, T/C [11] of 40.9%. For the same compound, the viability, T/C [36] was 27.3%, the viability, T/C [37] was 12% and the viability, T/C [14] was 66.8%. For the same compound, the viability, T/C [15] was 65.8%, the viability, T/C [16] was 58.9% and the viability, T/C [17] was 42.8%. The viability, T/C [38] was 26.1%, the viability, T/C [39] was 12.8% and the viability, T/C [20] was 63.9%. The viability, T/C [21] was 54.5%, the viability, T/C [22] was 52.6% and the viability, T/C [23] was 35.9%. The viability, T/C [40] was 26.5%, the viability, T/C [41] was 12.3% and the viability, T/C [26] was 54%. The viability, T/C [27] was 55%, the viability, T/C [28] was 50.7% and the viability, T/C [29] was 33.4%. The viability, T/C [42] was 23.7%, the viability, T/C [43] was 10.3% and the viability, T/C [32] was 48.9%. It also gave a viability, T/C [33] of 42.7%, a viability, T/C [34] of 34.7% and a viability, T/C [35] of 32.3%. It also gave a viability, T/C [44] of 17.7% and a viability, T/C [45] of 8.67%.
